Measurements as given in US20260232652A1, “COMBINATIONS OF DGK (DIACYLGLYCEROL KINASE) INHIBITORS” (priority 2023, published 2026).

What was measured:
human DGKalpha = target: T1, human DGKalpha (Homo sapiens, UniProt P23743); assay: Human DGKalpha kinase activity inhibition assay (ADP-Glo); assay type: biochemical; conditions: read-out: IC50 hDGKa
T1 construct: made in house; host or cells: baculovirus-infected Sf9 insect cells
Experimental: Human DGKalpha inhibitory activity of compounds of the present invention was quantified employing the human DGKalpha kinase activity assay as described in the following paragraphs. In essence, the enzyme activity was measured by quantification of the adenosine-di-phosphate (ADP) generated as a co-product of the enzyme reaction via the “ADP-Glo™ Kinase Assay” kit from the company Promega. This detection system works as follows: In a first step the ATP not consumed in the kinase reaction is quantitatively converted to cAMP employing an adenylate cyclase (“ADP-Glo-reagent”), then the adenylate cyclase is stopped and the ADP generated in the kinase reaction converted to ATP, which subsequently generates in a luciferase-based reaction a glow-luminescence signal (“Kinase Detection Reagent”).
(§1) C-terminally FLAG-tagged, recombinant full-length human DGKalpha (expressed in baculovirus infected insect cells, purified using anti-Flag pulldown and size exclusion chromatography as described below, DGKa_hu_1) was used as enzyme. As substrate for the kinase 1,2-dioleoyl-sn-glycerol, reconstituted in octyl-β-D-glucopyranoside micelles, was used. […] Then 35 volumes of 50 mM MOPS buffer (pH 7.4) were added to yield a solution of 0.28 mM 1,2 dioleoyl-sn-glycerol and 200 mM octyl-β-D-glucopyranoside, which was aliquoted, flash-frozen in liquid nitrogen, and stored at −20° C. until use.
For the assay 50 nl of a 100-fold concentrated solution of the test compound in dimethyl sulfoxide (DMSO, Sigma) was pipetted into either a white 1536-well or a white low-volume 384-well microtiter plate (both Greiner Bio-One, Frickenhausen, Germany). […] The concentration of DGKα was adjusted depending of the activity of the enzyme lot and was chosen appropriate to have the assay in the linear range, a typical concentration is about 0.1 nM. The reaction was stopped by the addition of […] of “ADP-Glo-reagent” (1 to 1.5 diluted with water) and the resulting mixture was incubated at 22° C. for 1 h to convert the ATP not consumed in the kinase reaction completely to cAMP. […] The amount of emitted light was taken as a measure for the amount of ADP generated and thereby for the activity of the DGKα.

human DGKzeta = target: T2, human DGKzeta (Homo sapiens, UniProt Q13574); assay: Human DGKzeta kinase activity inhibition assay (ADP-Glo); assay type: biochemical; conditions: read-out: IC50 hDGKz
T2 construct: C-terminally FLAG-tagged, recombinant full-length human DGKζ; made in house; host or cells: baculovirus-infected insect cells
T2 sequence (Q13574 whole entry): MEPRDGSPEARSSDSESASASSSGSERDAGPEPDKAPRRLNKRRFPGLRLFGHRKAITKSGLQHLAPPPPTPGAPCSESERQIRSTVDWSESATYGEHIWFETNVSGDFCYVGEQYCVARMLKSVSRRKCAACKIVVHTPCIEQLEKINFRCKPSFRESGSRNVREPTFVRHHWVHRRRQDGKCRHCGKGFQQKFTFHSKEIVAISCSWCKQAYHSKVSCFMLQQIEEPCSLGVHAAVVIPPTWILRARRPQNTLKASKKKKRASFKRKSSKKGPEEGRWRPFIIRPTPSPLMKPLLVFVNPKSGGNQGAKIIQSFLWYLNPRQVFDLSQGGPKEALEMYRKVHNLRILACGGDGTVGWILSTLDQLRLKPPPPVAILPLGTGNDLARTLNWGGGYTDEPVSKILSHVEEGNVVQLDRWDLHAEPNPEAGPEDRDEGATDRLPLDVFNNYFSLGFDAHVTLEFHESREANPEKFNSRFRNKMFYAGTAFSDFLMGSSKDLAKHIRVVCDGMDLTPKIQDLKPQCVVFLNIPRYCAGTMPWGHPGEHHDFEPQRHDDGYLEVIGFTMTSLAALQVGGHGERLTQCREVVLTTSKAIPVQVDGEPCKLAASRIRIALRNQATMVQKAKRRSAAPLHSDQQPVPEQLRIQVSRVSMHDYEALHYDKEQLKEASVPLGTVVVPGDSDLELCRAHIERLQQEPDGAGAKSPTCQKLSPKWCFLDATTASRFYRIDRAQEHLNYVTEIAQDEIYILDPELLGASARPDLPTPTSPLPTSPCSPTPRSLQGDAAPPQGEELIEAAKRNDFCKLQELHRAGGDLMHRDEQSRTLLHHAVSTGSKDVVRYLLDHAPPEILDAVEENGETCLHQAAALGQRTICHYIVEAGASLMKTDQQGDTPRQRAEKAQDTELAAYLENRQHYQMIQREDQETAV
Experimental: Human diacylglycerol kinase zeta (DGKζ) inhibitory activity of compounds of the present invention was quantified employing the human DGKζ kinase activity assay as described in the following paragraphs. In essence, the enzyme activity was measured by quantification of the adenosine-di-phosphate (ADP) generated as a co-product of the enzyme reaction via the “ADP-Glo™ Kinase Assay” kit from the company Promega. This detection system works as follows: In a first step the adenosine-tri-phosphate (ATP) not consumed in the kinase reaction is quantitatively converted to cyclic adenosine-mono-phosphate (cAMP) employing an adenylate cyclase (“ADP-Glo-reagent”), then the adenylate cyclase is stopped and the ADP generated in the kinase reaction is converted to ATP, which subsequently generates in a luciferase-based reaction a glow-luminescence signal (“Kinase Detection Reagent”).
as §1, with “DGKζ (inhouse expressed” for “DGKalpha (expressed”, “chromatography)” for “chromatography as described below, DGKa_hu_1)”, “As an alternative, commercially available enzyme by Carnabio can be used. As” for “As”, “kinase,” for “kinase”
For the assay 50 nl of a 100-fold concentrated solution of the test compound in dimethyl sulfoxide (DMSO, Sigma) was pipetted into either a white 1536-well or a white low-volume 384-well microtiter plate (both Greiner Bio-One, Frickenhausen, Germany). […] The concentration of DGKζ was adjusted depending of the activity of the enzyme lot and was chosen appropriate to have the assay in the linear range, a typical concentration is about 0.1 nM. The reaction was stopped by the addition of 2.5 μL of “ADP-Glo-reagent” (1 to 1.5 diluted with water) and the resulting mixture was incubated at 22° C. for 1 h to convert the ATP not consumed in the kinase reaction completely to cAMP. […] The amount of emitted light was taken as a measure for the amount of ADP generated and thereby for the activity of the DGKζ.

[1] = tested on: Hepa 1-6 tumor bearing mice; assay: Hepa 1-6 tumor bearing mice, mean tumor volume (Example 8); assay type: in vivo; conditions: DGKzeta inhibitor A′ 3 mg/kg QD p.o., TPP-15285 5 mg/kg BIW i.p.
Text: While the antibody administration was started on day 7 after tumor inoculation, the DGK inhibitor treatment started two days later, on day 9 after tumor inoculation. This schedule was designed to allow the efficient depletion of the Tregs by the anti-mouse CCR8 surrogate antibody before the DGK inhibitor activates the T cells. […] While the antibody administration was started on day 7 after tumor inoculation, the DGK inhibitor treatment started two days later, on day 9 after tumor inoculation. This schedule was designed to allow the efficient depletion of the Tregs by the anti-mouse CCR8 surrogate antibody before the DGK inhibitor activates the T cells. […] While the antibody administration was started on day 7 after tumor inoculation, the DGKalpha and DGKzeta inhibitor treatment started two days later, on day 9 after tumor inoculation. This schedule was designed to allow the efficient depletion of the Tregs by the anti-mouse CCR8 surrogate antibody before the DGK inhibitor activates the T cells. […] The DGKalpha and DGKzeta inhibitor treatment started on day 9 after tumor inoculation.

[2] = Day 0, DGKalpha inhibitor A 5 mg/kg QD p.o.
[3] = Day 4, DGKalpha inhibitor A 5 mg/kg QD p.o.
[4] = Day 7, DGKalpha inhibitor A 5 mg/kg QD p.o.
[5] = Day 11, DGKalpha inhibitor A 5 mg/kg QD p.o.
[6] = Day 14, DGKalpha inhibitor A 5 mg/kg QD p.o.
[7] = Day 18, DGKalpha inhibitor A 5 mg/kg QD p.o.
[8] = Day 20, DGKalpha inhibitor A 5 mg/kg QD p.o.

T1 sequence (P23743 whole entry): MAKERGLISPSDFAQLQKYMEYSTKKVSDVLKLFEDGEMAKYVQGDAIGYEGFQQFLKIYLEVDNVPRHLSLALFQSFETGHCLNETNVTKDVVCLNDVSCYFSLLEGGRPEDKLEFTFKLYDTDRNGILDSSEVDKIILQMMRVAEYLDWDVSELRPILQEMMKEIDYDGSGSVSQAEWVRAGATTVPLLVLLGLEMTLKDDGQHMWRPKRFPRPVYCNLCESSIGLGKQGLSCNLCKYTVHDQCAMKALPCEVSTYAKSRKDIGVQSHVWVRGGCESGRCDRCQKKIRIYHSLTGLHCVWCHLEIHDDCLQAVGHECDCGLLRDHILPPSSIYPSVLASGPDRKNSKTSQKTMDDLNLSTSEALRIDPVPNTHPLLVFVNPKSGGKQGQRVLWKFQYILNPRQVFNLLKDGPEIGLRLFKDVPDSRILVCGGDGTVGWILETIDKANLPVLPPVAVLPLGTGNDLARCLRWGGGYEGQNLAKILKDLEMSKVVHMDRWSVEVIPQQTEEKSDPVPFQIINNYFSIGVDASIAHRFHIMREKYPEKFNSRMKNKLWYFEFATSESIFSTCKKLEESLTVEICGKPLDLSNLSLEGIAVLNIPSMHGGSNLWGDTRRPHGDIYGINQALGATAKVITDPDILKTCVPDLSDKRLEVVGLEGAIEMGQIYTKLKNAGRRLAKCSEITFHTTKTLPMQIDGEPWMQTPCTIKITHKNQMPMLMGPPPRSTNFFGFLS

SMILES | IC50 (human DGKalpha) [µM] | IC50 (human DGKzeta) [µM] | Mean tumor volume [1, 2] [mm^3] | Mean tumor volume [1, 3] [mm^3] | Mean tumor volume [1, 4] [mm^3] | Mean tumor volume [1, 5] [mm^3] | Mean tumor volume [1, 6] [mm^3] | Mean tumor volume [1, 7] [mm^3] | Mean tumor volume [1, 8] [mm^3]
Cc1ccc2oc(C3CCN(c4c(C(N)=O)c(=O)n(C)c5ccc(F)cc45)CC3)nc2c1 [DGKalpha inhibitor A, 6-fluoro-1-methyl-4-[4-(5-methyl-1,3-benzoxazol-2-yl)piperidin-1-yl]-2-oxo-1,2-dihydroquinoline-3-carboxamide] | 0.00025 | 17.2 | 88.99 | 186.75 | 321.40 | 461.93 | 569.94 | 787.30 | 957.86
COc1ccc(C(=O)c2sc(N(c3ccc(F)cc3)[C@H](C)C(N)=O)nc2N)cc1 [DGKzeta inhibitor A′, (R)-2-(N-[4-amino-5-(4-methoxybenzoyl)thiazol-2-yl]-4-fluoro-anilino)propanamide] | > 3.63 | – | 88.99 | 224.86 | 429.26 | 624.07 | 799.19 | 1001.75 | 1158.6
